The conditions of data set [1]: Crystal; DTA.
Data set [2] in a line: Molar enthalpy of transition or fusion. Particulars: Crystal; DSC.

± gives the expanded uncertainty stated by the source.

`CCCCCCC[n+]1csc2ccccc21.F[P-](F)(F)(F)(F)F` [3-heptylbenzo[d]thiazol-3-ium hexafluorophosphate]: the Normal melting temperature in data set [1] came out at 86.2 ± 0.5 °C. Also, in data set [2], the “Molar enthalpy of transition or fusion” value is 4.8 ± 0.167 kcal/mol.

With `CCCCCC[n+]1csc2ccccc21.F[P-](F)(F)(F)(F)F` [N-hexylbenzothiazolium hexafluorophosphate], the Normal melting temperature in data set [1] is 85.64 ± 0.5 °C. In addition, in data set [2], the “Molar enthalpy of transition or fusion” value was 5.62 ± 0.167 kcal/mol.

Take `CCCCCCCC[n+]1csc2ccccc21.F[P-](F)(F)(F)(F)F` [N-octylbenzothiazolium hexafluorophosphate]: the Normal melting temperature in data set [1] was 61.07 ± 0.5 °C. The “Molar enthalpy of transition or fusion” value in data set [2] stood at 3.59 ± 0.12 kcal/mol.

As to `CCCCC[n+]1csc2ccccc21.F[P-](F)(F)(F)(F)F` [N-pentylbenzothiazolium hexafluorophosphate], the Normal melting temperature in data set [1] worked out at 139.11 ± 0.5 °C. Besides, in data set [2], the “Molar enthalpy of transition or fusion” value is 7.22 ± 0.215 kcal/mol.

For the origin of these results see the NIST ThermoML archive (doi:10.1021/je500762n).
